This is an account of results in patent US20200245660A1, “AGROCHEMICAL-FREE SIRAITIA GROSVENORII EXTRACT, AND METHOD FOR PREPARING SAME” (priority 2015, published 2020).

Read-outs that look alike come from different tables or passages of the source.

Series [1] in a line: physchem. It counts as physicochemical. Conditions: LogPow. As to the method:
These agrochemicals are each a compound having a distribution coefficient (LogPow) of 1.71 or more. Herein, the distribution coefficient of a target compound specifically means the 1-octanol/water distribution coefficient (LogPowow) thereof. When the target compound is added into two solvent phases (of 20 to 25° C.) of 1-octanol and water to make the two phases into an equilibrium state, the distribution coefficient more specifically means the concentration ratio of the compound between the two phases (1-octanol/water). The distribution coefficient may be gained by a flask method or an HPLC method. The distribution coefficient is a physicochemical index representing the hydrophobicity (solubility into lipid) of the compound. As the compound is higher in distribution coefficient, the compound is higher in hydrophobicity. It is known that as the compound is higher in hydrophobicity, the compound is higher in storability in a living body and is also stronger in toxicity. Thus, it can be stated that as the compound is higher in distribution coefficient, the compound is an agrochemical stronger in toxicity.
For reference, out of the six, about dimethomorph, tebuconazole, difenoconazole, metalaxyl, and metalaxyl M, the respective LogPow values are shown below. […]

The conditions of series [2]: cited from earlier work.

Take `CC(C)(C)C(O)C(Oc1ccc(Cl)cc1)n1cncn1` (centres unmarked) [Triadimenol, triadimenol]: the chromatographic logP (usually a lipophilicity value derived from retention on a column) in series [1] is roughly 2.96.
As for `CC(C)(C)C(O)(CCc1ccc(Cl)cc1)Cn1cncn1` (centres unmarked) [Tebuconazole, tebuconazole], in series [2] (20 °C, Flask method), the LogPow is recorded as 3.7.
For the compound `COCC(=O)N(c1c(C)cccc1C)[C@H](C)C(=O)OC` [Metalaxyl M, metalaxyl M], in series [2] (25 °C, HPLC method), the LogPow was 1.71.
For the compound `COCC(=O)N(c1c(C)cccc1C)C(C)C(=O)OC` (centres unmarked) [Metalaxyl, metalaxyl], the LogPow in series [2] (25 °C, Flask method) is reported as 1.75.
`CC1COC(Cn2cncn2)(c2ccc(Oc3ccc(Cl)cc3)cc2Cl)O1` (centres unmarked) [Difenoconazole, difenoconazole]: the LogPow in series [2] (25 °C, Flask method) is on record as 4.4.
